Data reported in ChEMBL document CHEMBL4033632, “Design, synthesis and biological activity of novel donepezil derivatives bearing N-benzyl pyridinium moiety as potent and dual binding site acetylcholinesterase inhibitors” (Eur J Med Chem, 2017).
Active and inactive are the calls of the source. No cut-off for these calls is given here.

Experiments:
Acetylcholinesterase [1] = biological target: Acetylcholinesterase (Homo sapiens, UniProt P22303); test: Inhibition of human erythrocyte AChE using acetylthiocholine iodide as substrate pretreated for 6 mins followed by substrate addition measured up to 180 sec by Ellman's method
Acetylcholinesterase (Homo sapiens, UniProt P22303), sequence (P22303 whole entry): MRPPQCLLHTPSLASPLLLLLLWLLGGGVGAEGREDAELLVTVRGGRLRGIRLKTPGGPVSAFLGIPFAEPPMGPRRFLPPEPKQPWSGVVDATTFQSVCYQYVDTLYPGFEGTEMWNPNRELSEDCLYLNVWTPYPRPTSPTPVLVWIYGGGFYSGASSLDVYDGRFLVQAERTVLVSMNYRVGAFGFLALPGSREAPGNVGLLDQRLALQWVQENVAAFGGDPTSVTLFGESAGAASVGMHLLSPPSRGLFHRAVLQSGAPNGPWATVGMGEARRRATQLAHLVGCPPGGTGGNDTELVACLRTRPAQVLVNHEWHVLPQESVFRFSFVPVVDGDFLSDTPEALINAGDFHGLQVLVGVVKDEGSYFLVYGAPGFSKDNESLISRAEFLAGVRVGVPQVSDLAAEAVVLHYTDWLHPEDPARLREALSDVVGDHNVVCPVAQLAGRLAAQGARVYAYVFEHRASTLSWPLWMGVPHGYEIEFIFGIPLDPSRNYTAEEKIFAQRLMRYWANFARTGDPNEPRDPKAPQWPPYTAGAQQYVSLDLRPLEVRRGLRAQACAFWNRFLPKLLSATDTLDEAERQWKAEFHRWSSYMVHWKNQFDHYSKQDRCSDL

[2] = Antioxidant activity assessed as trolox equivalents of DPPH radical scavenging activity at 25 uM after 30 mins by UV-vis spectrophotometry; format: functional
[3] = Selectivity index, ratio of IC50 for equine serum BuChE to IC50 for Electric eel AChE
[4] = biological target: Amyloid-beta precursor protein (Homo sapiens) (UniProt P05067); test: Inhibition of HFIP-pretreated amyloid beta (1 to 42) (unknown origin) self-induced aggregation at 20 uM incubated for 46 to 48 hrs by thioflavin-T fluorescence assay relative to control
Amyloid-beta precursor protein (Homo sapiens), sequence (P05067 whole entry): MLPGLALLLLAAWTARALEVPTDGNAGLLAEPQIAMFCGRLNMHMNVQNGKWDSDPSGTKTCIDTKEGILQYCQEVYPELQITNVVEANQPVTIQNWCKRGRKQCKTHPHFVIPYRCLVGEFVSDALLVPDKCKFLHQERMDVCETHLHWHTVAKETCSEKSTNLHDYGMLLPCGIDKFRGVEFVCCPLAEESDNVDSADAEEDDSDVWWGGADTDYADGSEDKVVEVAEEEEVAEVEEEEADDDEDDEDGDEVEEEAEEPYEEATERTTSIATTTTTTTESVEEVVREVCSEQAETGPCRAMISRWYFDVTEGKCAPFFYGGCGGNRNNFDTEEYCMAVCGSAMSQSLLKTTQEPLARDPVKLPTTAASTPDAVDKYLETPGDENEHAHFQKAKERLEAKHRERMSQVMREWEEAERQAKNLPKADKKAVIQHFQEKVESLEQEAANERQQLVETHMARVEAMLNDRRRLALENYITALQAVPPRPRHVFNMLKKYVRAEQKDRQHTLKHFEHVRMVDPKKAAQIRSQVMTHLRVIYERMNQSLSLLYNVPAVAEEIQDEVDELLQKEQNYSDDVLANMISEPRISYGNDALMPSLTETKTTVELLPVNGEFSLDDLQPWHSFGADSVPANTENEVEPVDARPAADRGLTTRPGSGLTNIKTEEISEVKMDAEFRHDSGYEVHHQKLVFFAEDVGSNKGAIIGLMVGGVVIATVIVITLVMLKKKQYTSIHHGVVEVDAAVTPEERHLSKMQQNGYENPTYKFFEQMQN

Acetylcholinesterase [5] = biological target: Acetylcholinesterase (Electrophorus electricus, UniProt O42275); test: Inhibition of electric eel AChE using acetylthiocholine iodide as substrate pretreated for 6 mins followed by substrate addition measured up to 180 sec by Ellman's method
Acetylcholinesterase (Electrophorus electricus, UniProt O42275), sequence (O42275 whole entry): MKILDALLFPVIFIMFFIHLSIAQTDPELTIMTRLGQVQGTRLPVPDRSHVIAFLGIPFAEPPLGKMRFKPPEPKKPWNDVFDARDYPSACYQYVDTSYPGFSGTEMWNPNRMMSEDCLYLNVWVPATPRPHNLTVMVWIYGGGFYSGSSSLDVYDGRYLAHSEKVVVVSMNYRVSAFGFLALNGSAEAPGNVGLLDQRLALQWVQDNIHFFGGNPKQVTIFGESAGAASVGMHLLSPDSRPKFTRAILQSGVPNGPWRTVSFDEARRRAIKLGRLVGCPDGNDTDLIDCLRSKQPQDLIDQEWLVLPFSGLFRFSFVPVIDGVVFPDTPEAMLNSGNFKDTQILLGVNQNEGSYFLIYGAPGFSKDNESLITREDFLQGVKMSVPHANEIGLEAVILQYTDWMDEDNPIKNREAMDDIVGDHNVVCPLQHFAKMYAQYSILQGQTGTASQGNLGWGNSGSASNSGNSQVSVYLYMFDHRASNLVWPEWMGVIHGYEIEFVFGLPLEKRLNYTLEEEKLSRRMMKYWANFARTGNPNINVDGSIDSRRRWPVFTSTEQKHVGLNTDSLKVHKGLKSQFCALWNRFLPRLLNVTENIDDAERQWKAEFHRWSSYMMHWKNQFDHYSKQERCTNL

Cholinesterase = Cholinesterase (Equus caballus, UniProt P81908); test: Inhibition of equine serum BuChE using s-butyrylthiocholine iodide as substrate preincubated for 6 mins followed by substrate addition measured up to 180 sec by Ellman's method
Cholinesterase, sequence (P81908 whole entry): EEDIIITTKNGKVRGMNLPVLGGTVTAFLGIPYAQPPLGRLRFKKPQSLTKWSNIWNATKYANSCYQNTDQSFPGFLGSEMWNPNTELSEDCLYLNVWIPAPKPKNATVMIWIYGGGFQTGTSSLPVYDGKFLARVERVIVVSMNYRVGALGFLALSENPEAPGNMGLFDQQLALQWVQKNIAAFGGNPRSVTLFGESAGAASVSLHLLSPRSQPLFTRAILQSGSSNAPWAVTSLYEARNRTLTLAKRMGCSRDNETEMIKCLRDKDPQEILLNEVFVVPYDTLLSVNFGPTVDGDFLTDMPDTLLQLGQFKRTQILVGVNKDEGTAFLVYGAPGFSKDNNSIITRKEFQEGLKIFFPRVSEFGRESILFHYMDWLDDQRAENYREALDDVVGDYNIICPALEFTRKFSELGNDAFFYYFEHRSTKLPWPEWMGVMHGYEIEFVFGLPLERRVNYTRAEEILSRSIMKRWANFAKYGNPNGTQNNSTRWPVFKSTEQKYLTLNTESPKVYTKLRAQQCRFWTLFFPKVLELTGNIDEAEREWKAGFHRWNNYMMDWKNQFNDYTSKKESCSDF

PC-12 [6] = test: Cytotoxicity against rat PC12 cells assessed as effect on cell viability at 6 to 100 uM after 24 hrs by MTT assay; format: cell-based; conditions: pc-12, 24 h
PC-12 [7] = test: Neuroprotective activity against H2O2-induced oxidative damage in rat PC12 cells assessed as increase in cell viability at 6.25 uM after 24 hrs by MTT assay; format: functional, cell-based
PC-12 [8] = test: Neuroprotective activity against H2O2-induced oxidative damage in rat PC12 cells assessed as cell viability at 12.5 uM after 24 hrs by MTT assay relative to control; format: functional; conditions: PC-12, 24 h, read-out: Activity
PC-12 [9] = test: Neuroprotective activity against amyloid beta (1 to 42 residues) induced cell death in rat PC12 cells assessed as cell viability at 12.5 uM preincubated for 2 hrs followed by amyloid beta (1 to 42 residues) addition measured after 24 hrs by MTT assay (reference value: 50.5%); format: functional; conditions: read-out: Activity
physchem = conditions: PAMPA
Description: Permeability of the compound at 200 uL after 16 hrs by PAMPA-BBB assay

PC-12 [10] = test: Neuroprotective activity against amyloid beta (1 to 42 residues) induced cell death in rat PC12 cells assessed as cell viability at 3.12 uM preincubated for 2 hrs followed by amyloid beta (1 to 42 residues) addition measured after 24 hrs by MTT assay (reference value: 50.5%); format: functional; conditions: read-out: Activity
Mus musculus [11] = test: Toxicity in Kunming mouse assessed as effect on food consumption up to 2000 mg/kg, po measured up to 14 days post dose; format: organism-based; conditions: in vivo, 336 h
Mus musculus [12] = test: Toxicity in Kunming mouse assessed as effect on water consumption up to 2000 mg/kg, po measured up to 14 days post dose; format: organism-based; conditions: in vivo, 336 h
[13] = biological target: Acetylcholinesterase (Electrophorus electricus) (UniProt O42275); test: Mixed-type inhibition of electric eel AChE at 1.25 to 5 nM using varying levels of acetylthiocholine iodide substrate by Lineweaver-Burk plot analysis
Acetylcholinesterase (Electrophorus electricus), sequence (O42275 24-633 limits assumed): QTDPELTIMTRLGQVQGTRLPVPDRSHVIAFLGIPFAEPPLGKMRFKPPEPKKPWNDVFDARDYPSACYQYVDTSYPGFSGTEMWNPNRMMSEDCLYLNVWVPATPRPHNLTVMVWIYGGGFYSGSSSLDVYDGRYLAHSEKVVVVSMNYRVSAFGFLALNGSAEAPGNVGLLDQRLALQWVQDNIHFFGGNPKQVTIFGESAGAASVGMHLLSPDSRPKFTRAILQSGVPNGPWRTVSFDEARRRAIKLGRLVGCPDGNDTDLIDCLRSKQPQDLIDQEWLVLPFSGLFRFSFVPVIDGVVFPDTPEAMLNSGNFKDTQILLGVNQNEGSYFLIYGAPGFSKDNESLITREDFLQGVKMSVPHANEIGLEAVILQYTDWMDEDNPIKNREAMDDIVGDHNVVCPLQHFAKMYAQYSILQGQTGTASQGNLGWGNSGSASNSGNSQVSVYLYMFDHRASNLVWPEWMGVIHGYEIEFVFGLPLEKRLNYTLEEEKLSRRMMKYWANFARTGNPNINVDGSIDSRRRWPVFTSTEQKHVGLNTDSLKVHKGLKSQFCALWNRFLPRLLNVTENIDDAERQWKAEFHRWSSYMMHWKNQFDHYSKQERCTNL

Mus musculus [14] = test: Toxicity in Kunming mouse assessed as body weight loss up to 2000 mg/kg, po measured up to 14 days post dose; format: organism-based; conditions: in vivo, 336 h
[15] = biological target: Amyloid-beta precursor protein (Homo sapiens) (UniProt P05067); test: Inhibition of amyloid beta (1 to 42) (unknown origin) self-induced aggregation assessed as reduction in amyloid beta fibrils by transmission electron microscopic analysis
Mus musculus [16] = test: Toxicity in Kunming mouse assessed as mortality up to 2000 mg/kg, po measured up to 14 days post dose; format: organism-based; conditions: in vivo, 336 h
PC-12 [17] = test: Neuroprotective activity against amyloid beta (1 to 42 residues) induced cell death in rat PC12 cells assessed as cell viability at 1.56 uM preincubated for 2 hrs followed by amyloid beta (1 to 42 residues) addition measured after 24 hrs by MTT assay (reference value: 50.5%); format: functional; conditions: read-out: Activity
PC-12 [18] = test: Neuroprotective activity against amyloid beta (1 to 42 residues) induced cell death in rat PC12 cells assessed as cell viability at 6.25 uM preincubated for 2 hrs followed by amyloid beta (1 to 42 residues) addition measured after 24 hrs by MTT assay (reference value: 50.5%); format: functional; conditions: read-out: Activity

Structure (SMILES)	IC50 (Acetylcholinesterase [1]) [nM]	Activity [2] [equiv]	Ratio IC50 [3]	inhibition [4] [%]	IC50 (Acetylcholinesterase [5]) [nM]	other results
COc1cc2c(cc1OC)C(=O)/C(=C/c1cc[n+](Cc3cccc(Br)c3)cc1)C2	5.2	0.32	> 2270	53.4	4.4	
COc1cc2c(cc1OC)C(=O)/C(=C/c1cc[n+](Cc3cccc(F)c3)cc1)C2	2.9	0.47	> 2940	43.5	3.4	
COc1cc2c(cc1OC)C(=O)/C(=C/c1cc[n+](Cc3ccccc3)cc1)C2	3.4	0.51	> 3450	45.6	2.9	
COc1cc2c(cc1OC)C(=O)/C(=C/c1cc[n+](Cc3ccccc3Br)cc1)C2	3.8	0.37	> 3450	56.7	2.9	
COc1cc2c(cc1OC)C(=O)/C(=C/c1cc[n+](Cc3cccc(C)c3)cc1)C2	4	0.47	> 2380	42.6	4.2	
COc1cc2c(cc1OC)C(=O)/C(=C/c1cc[n+](Cc3ccc(C)cc3)cc1)C2	18.6	0.39	> 391	49.9	25.6	
COc1cc2c(cc1OC)C(=O)/C(=C/c1cc[n+](Cc3ccccc3C)cc1)C2	5.8	0.41	> 1960	38.7	5.1	
COc1cc2c(cc1OC)C(=O)C(CC1CCN(Cc3ccccc3)CC1)C2 (stereo not given)		0.63				
COc1cc2c(cc1OC)C(=O)/C(=C/c1cc[n+](Cc3ccc(F)cc3)cc1)C2	4.1	0.51	1170	47.6	4.6	IC50 (Cholinesterase): 5400 nM
COc1cc2c(cc1OC)C(=O)/C(=C/c1cc[n+](Cc3cccc([N+](=O)[O-])c3)cc1)C2	3.6	0.33	> 1690	50.8	5.9	
COc1cc2c(cc1OC)C(=O)/C(=C/c1cc[n+](Cc3ccc([N+](=O)[O-])cc3)cc1)C2	59.5	0.49	> 130	47.2	74.6	
COc1cc2c(cc1OC)C(=O)/C(=C/c1cc[n+](Cc3ccccc3F)cc1)C2.[Br-]	0.8	0.54		53.7		Activity (PC-12 [6]): Non-Toxic; Activity (PC-12 [7]): Active; viability at 12.5 µM (PC-12 [8]): 73.2%; viability at 12.5 µM (PC-12 [9]): 76.3%; Papp at 16 h (physchem): 4.97 ×10⁻⁶ cm/s; viability at 3.12 µM (PC-12 [10]): 66.5%; Activity (Mus musculus [11]): Non-Toxic; Activity (Mus musculus [12]): Non-Toxic; inhibition [13]: Active; Activity (Mus musculus [14]): Non-Toxic; inhibition [15]: Active; Activity (Mus musculus [16]): Non-Toxic; viability at 1.56 µM (PC-12 [17]): 53.7%; viability at 6.25 µM (PC-12 [18]): 72.3%
COc1cc2c(cc1OC)C(=O)/C(=C/c1cc[n+](Cc3ccc(Br)cc3)cc1)C2	69.7	0.38	> 129	50.2	77.3	
C[C@]12CC[C@@H]3c4ccc(O)cc4CC[C@H]3[C@@H]1CC[C@@H]2O [ESTRADIOL]						Papp at 16 h (physchem): 11.3 ×10⁻⁶ cm/s
